Measured values reported in ChEMBL document CHEMBL1138106, “The discovery of a potent and selective lethal factor inhibitor for adjunct therapy of anthrax infection” (Bioorg Med Chem Lett, 2006).
≈ marks a conversion by molar mass, not a printed value.

Assays:
[1] = target: Matrix metalloproteinase-14 (Homo sapiens, UniProt P50281); assay: Inhibition of MMP14
[2] = Bioavailability in Guinea pig at 1 mg/ml, po; type: ADME, organism-based, Cavia porcellus; conditions: in vivo
Lethal factor [3] = target: T1, Lethal factor (Bacillus anthracis, UniProt P15917)
T1 sequence (P15917 whole entry): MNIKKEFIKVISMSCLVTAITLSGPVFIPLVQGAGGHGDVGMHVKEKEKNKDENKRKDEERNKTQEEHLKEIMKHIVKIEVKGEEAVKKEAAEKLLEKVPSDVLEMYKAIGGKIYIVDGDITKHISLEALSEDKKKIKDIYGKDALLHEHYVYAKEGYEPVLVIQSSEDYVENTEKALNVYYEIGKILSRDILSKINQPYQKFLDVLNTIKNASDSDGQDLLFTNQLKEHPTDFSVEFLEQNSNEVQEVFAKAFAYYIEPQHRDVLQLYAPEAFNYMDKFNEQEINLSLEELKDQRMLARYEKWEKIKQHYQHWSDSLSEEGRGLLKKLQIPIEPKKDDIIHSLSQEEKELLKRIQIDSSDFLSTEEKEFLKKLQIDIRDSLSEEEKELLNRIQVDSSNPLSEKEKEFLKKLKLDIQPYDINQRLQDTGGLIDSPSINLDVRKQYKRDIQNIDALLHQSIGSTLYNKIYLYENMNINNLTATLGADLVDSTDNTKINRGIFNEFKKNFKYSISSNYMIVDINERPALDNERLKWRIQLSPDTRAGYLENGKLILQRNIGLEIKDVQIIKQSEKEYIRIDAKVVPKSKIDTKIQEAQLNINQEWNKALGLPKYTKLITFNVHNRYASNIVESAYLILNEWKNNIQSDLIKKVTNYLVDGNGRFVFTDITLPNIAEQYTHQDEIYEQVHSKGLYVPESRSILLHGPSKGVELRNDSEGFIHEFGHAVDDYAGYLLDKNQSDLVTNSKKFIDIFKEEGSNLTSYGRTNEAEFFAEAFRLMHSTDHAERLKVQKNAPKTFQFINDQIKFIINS

[4] = Cmax in Dutch Belted rabbit at 2 mg/kg, iv; type: ADME, organism-based, Oryctolagus cuniculus; parameters: dose 2 mg/kg, route intravenous; conditions: in vivo
[5] = Clearance in Beagle dog at 1 mg/kg, iv; type: ADME, organism-based, Canis lupus familiaris; parameters: dose 1 mg/kg, route intravenous; conditions: in vivo
[6] = target: Matrix metalloproteinase-9 (Homo sapiens, UniProt P14780); assay: Inhibition of MMP9
[7] = Tmax in Beagle dog at 1 mg/kg, iv; type: ADME, organism-based, Canis lupus familiaris; parameters: dose 1 mg/kg, route intravenous; conditions: in vivo
Neprilysin = Neprilysin (Homo sapiens, UniProt P08473); assay: Inhibition of NEP
[8] = Half life in BALB/c mice at 10 mg/kg, iv; type: ADME, organism-based; parameters: dose 10 mg/kg, route intravenous; conditions: mouse, in vivo
[9] = Cmax in Beagle dog at 1 mg/kg, iv; type: ADME, organism-based, Canis lupus familiaris; parameters: dose 1 mg/kg, route intravenous; conditions: in vivo
[10] = Tmax in Sprague-Dawley rat at 1 mg/kg, iv; type: ADME, organism-based; parameters: dose 1 mg/kg, route intravenous; conditions: in vivo
[11] = Half life in Guinea pig at 2 mg/kg, iv; type: ADME, organism-based, Cavia porcellus; parameters: dose 2 mg/kg, route intravenous; conditions: in vivo
[12] = Clearance in Sprague-Dawley rat at 1 mg/kg, iv; type: ADME, organism-based; parameters: dose 1 mg/kg, route intravenous; conditions: in vivo
[13] = Bioavailability in Sprague-Dawley rat […], po; type: ADME, organism-based; conditions: in vivo
[14] = Bioavailability in Beagle dog […], po; type: ADME, organism-based, Canis lupus familiaris; conditions: in vivo
[15] = Volume of distribution in Beagle dog at 1 mg/kg, iv; type: ADME, organism-based, Canis lupus familiaris; parameters: dose 1 mg/kg, route intravenous; conditions: in vivo, read-out: Vdss
Lethal factor [16] = target: T1, Lethal factor; remark: listed apart in the source
[17] = target: 72 kDa type IV collagenase (Homo sapiens, UniProt P08253); assay: Inhibition of MMP2
Stromelysin-1 = Stromelysin-1 (Homo sapiens, UniProt P08254); assay: Inhibition of MMP3
[18] = target: Disintegrin and metalloproteinase domain-containing protein 17 (Homo sapiens, UniProt P78536); assay: Inhibition of TACE
[19] = Volume of distribution in rhesus monkey at 1 mg/kg, iv; type: ADME, organism-based, Macaca mulatta; parameters: dose 1 mg/kg, route intravenous; conditions: in vivo, read-out: Vdss
[20] = Clearance in BALB/c mice at 10 mg/kg, iv; type: ADME, organism-based; parameters: dose 10 mg/kg, route intravenous; conditions: mouse, in vivo
[21] = Clearance in New Zealand White rabbit at 5 mg/kg, iv; type: ADME, organism-based, Oryctolagus cuniculus; parameters: dose 5 mg/kg, route intravenous; conditions: in vivo
[22] = target: Angiotensin-converting enzyme (Homo sapiens) (UniProt P12821); assay: Inhibition of ACE at 10 uM
[23] = Cmax in BALB/c mice at 10 mg/kg, iv; type: ADME, organism-based; parameters: dose 10 mg/kg, route intravenous; conditions: mouse, in vivo
[24] = Half life in rhesus monkey at 1 mg/kg, iv; type: ADME, organism-based, Macaca mulatta; parameters: dose 1 mg/kg, route intravenous; conditions: in vivo
[25] = Bioavailability in Sprague-Dawley rat at 2 mg/ml, po; type: ADME, organism-based; conditions: in vivo
[26] = Half life in Beagle dog at 1 mg/kg, iv; type: ADME, organism-based, Canis lupus familiaris; parameters: dose 1 mg/kg, route intravenous; conditions: in vivo
[27] = Tmax in rhesus monkey at 1 mg/kg, iv; type: ADME, organism-based, Macaca mulatta; parameters: dose 1 mg/kg, route intravenous; conditions: in vivo
[28] = Tmax in Dutch Belted rabbit at 2 mg/kg, iv; type: ADME, organism-based, Oryctolagus cuniculus; parameters: dose 2 mg/kg, route intravenous; conditions: in vivo
[29] = Cmax in rhesus monkey at 1 mg/kg, iv; type: ADME, organism-based, Macaca mulatta; parameters: dose 1 mg/kg, route intravenous; conditions: in vivo
Interstitial collagenase = target: T2, Interstitial collagenase (Homo sapiens, UniProt P03956); assay: Inhibition of MMP1
T2 sequence (P03956 whole entry): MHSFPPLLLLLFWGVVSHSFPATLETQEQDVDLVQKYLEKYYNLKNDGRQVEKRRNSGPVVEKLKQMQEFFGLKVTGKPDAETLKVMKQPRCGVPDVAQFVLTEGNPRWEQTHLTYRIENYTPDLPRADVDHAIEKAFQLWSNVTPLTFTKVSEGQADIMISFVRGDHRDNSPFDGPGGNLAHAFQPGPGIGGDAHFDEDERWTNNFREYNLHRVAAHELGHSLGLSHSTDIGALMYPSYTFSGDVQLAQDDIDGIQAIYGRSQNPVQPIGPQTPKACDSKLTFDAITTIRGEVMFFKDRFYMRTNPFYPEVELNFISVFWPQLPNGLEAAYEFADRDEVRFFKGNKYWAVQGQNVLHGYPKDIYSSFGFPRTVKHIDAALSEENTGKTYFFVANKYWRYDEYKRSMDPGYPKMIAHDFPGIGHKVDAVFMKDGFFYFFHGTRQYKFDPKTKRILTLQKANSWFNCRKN

Lethal factor [30] = target: T1, Lethal factor; assay: Inhibition of LF; conditions: read-out: IC50
[31] = Volume of distribution in BALB/c mice at 10 mg/kg, iv; type: ADME, organism-based; parameters: dose 10 mg/kg, route intravenous; conditions: mouse, in vivo, read-out: Vdss
[32] = Volume of distribution in Dutch Belted rabbit at 2 mg/kg, iv; type: ADME, organism-based, Oryctolagus cuniculus; parameters: dose 2 mg/kg, route intravenous; conditions: in vivo, read-out: Vdss
[33] = Bioavailability in BALB/c mice […], po; type: ADME, organism-based; conditions: mouse, in vivo
[34] = Solubility in water; type: physicochemical
[35] = Clearance in Dutch Belted rabbit at 2 mg/kg, iv; type: ADME, organism-based, Oryctolagus cuniculus; parameters: dose 2 mg/kg, route intravenous; conditions: in vivo
[36] = Bioavailability in Dutch Belted rabbit […], po; type: ADME, organism-based, Oryctolagus cuniculus; conditions: in vivo
[37] = Half life in Dutch Belted rabbit at 2 mg/kg, iv; type: ADME, organism-based, Oryctolagus cuniculus; parameters: dose 2 mg/kg, route intravenous; conditions: in vivo
[38] = Tmax in Guinea pig at 2 mg/kg, iv; type: ADME, organism-based, Cavia porcellus; parameters: dose 2 mg/kg, route intravenous; conditions: in vivo
[39] = Clearance in rhesus monkey at 1 mg/kg, iv; type: ADME, organism-based, Macaca mulatta; parameters: dose 1 mg/kg, route intravenous; conditions: in vivo
[40] = Cmax in Sprague-Dawley rat at 1 mg/kg, iv; type: ADME, organism-based; parameters: dose 1 mg/kg, route intravenous; conditions: in vivo
[41] = Clearance in Guinea pig at 2 mg/kg, iv; type: ADME, organism-based, Cavia porcellus; parameters: dose 2 mg/kg, route intravenous; conditions: in vivo

Sequence of Neprilysin (P08473 whole entry): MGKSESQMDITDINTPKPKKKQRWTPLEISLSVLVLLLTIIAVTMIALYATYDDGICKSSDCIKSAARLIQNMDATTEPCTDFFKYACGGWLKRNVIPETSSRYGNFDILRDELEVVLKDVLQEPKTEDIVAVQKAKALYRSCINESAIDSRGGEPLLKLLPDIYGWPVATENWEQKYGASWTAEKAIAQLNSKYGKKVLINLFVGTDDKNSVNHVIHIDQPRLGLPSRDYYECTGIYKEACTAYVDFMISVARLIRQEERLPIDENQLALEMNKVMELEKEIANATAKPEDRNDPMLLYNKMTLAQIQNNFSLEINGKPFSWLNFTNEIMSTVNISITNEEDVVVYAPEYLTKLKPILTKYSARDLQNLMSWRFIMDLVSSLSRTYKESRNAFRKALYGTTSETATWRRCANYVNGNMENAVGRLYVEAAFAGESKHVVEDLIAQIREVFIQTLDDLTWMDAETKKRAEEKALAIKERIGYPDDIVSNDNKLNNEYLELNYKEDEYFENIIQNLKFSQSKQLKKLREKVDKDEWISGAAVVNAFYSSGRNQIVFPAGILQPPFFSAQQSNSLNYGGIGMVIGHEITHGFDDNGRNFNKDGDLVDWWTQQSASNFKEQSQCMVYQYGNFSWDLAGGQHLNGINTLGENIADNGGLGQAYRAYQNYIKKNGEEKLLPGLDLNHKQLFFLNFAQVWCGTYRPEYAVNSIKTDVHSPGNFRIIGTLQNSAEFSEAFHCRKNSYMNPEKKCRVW
Sequence of 72 kDa type IV collagenase (P08253 whole entry): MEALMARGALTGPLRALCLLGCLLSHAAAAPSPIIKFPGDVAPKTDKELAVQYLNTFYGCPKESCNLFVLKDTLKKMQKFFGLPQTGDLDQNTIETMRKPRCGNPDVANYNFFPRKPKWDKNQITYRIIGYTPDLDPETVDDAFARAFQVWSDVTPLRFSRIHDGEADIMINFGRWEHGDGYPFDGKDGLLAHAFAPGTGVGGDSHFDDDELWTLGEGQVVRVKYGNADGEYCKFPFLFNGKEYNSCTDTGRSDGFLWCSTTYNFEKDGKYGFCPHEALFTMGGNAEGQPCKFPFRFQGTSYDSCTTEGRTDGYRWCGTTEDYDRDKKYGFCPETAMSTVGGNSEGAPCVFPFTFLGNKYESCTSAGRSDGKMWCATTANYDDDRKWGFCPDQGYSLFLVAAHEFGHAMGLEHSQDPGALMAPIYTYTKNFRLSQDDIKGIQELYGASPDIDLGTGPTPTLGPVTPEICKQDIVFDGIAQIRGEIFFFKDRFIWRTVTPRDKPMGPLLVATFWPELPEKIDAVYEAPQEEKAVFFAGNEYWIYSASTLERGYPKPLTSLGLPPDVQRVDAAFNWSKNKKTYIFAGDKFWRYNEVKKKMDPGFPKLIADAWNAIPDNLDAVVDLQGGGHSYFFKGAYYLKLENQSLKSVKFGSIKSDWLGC
Sequence of Disintegrin and metalloproteinase domain-containing protein 17 (P78536 whole entry, the tested form may be a part): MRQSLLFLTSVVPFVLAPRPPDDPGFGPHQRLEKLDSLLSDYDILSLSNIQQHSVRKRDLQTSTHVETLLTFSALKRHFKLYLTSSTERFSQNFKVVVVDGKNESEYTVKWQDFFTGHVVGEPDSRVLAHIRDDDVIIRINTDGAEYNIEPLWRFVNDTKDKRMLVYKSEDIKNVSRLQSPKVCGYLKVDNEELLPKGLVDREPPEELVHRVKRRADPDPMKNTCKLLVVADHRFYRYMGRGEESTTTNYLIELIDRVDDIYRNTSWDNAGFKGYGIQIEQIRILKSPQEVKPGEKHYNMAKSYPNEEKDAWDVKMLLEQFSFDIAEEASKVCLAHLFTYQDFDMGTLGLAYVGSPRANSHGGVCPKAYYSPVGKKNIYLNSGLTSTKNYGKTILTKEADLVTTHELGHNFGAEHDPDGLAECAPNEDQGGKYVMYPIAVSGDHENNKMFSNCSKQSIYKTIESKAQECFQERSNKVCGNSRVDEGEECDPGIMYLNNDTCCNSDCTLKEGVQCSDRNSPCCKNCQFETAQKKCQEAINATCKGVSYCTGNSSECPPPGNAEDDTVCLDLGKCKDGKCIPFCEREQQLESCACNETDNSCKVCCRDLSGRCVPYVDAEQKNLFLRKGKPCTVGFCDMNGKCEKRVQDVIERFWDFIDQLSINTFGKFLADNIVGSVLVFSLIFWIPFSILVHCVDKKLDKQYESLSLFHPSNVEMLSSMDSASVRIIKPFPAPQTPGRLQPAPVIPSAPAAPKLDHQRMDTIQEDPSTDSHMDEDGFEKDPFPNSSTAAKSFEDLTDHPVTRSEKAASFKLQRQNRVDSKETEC
Sequence of Matrix metalloproteinase-9 (P14780 whole entry): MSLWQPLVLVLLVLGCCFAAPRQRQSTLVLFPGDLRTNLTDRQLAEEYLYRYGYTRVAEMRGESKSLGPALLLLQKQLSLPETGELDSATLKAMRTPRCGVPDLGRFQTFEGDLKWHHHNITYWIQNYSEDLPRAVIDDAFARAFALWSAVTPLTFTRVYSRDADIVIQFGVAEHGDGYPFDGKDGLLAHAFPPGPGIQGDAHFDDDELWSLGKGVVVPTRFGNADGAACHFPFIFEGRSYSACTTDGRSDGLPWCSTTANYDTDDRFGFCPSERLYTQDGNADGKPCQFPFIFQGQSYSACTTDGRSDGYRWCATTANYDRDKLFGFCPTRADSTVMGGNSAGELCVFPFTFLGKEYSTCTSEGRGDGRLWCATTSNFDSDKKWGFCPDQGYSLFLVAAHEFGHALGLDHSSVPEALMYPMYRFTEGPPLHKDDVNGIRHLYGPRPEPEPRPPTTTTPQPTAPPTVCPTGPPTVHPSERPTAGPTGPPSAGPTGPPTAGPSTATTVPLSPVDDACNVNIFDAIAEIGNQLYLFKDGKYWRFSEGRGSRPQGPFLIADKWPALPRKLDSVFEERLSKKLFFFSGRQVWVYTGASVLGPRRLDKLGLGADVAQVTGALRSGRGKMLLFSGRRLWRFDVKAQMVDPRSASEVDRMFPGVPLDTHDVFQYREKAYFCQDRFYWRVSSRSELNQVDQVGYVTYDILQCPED
Sequence of Angiotensin-converting enzyme (Homo sapiens) (P12821 whole entry): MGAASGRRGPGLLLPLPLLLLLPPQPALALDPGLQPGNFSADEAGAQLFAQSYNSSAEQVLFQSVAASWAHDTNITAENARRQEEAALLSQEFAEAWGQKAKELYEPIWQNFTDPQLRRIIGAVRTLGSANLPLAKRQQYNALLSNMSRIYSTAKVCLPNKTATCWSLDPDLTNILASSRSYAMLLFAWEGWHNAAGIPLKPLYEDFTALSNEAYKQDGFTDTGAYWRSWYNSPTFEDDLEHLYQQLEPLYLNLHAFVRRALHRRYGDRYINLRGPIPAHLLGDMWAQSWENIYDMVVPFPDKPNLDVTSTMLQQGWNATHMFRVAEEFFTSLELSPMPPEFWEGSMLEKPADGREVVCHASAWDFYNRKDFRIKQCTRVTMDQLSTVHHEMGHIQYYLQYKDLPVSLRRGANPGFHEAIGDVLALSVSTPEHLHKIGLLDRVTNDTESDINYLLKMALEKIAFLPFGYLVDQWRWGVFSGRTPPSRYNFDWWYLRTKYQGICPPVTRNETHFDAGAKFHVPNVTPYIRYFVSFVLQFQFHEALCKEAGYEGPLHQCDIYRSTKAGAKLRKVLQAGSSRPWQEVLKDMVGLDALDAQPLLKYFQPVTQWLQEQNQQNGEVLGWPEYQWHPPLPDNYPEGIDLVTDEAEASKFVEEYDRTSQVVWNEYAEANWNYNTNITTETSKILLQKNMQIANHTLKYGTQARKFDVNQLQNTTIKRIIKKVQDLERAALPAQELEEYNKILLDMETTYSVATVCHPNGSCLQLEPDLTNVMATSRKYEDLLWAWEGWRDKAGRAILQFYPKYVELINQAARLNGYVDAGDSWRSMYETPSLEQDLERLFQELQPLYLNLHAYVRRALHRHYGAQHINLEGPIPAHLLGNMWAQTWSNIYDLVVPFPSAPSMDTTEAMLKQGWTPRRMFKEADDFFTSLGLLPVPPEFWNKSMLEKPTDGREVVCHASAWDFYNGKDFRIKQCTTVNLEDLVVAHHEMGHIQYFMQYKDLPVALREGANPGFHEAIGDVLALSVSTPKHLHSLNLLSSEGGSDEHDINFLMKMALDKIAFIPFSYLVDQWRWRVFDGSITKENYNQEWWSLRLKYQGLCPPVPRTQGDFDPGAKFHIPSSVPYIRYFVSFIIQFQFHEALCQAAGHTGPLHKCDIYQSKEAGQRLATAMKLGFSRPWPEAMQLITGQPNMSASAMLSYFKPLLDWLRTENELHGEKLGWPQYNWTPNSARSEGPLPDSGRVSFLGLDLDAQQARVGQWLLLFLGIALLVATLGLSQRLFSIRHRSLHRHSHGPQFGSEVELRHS
Sequence of Stromelysin-1 (P08254 whole entry, the tested form may be a part): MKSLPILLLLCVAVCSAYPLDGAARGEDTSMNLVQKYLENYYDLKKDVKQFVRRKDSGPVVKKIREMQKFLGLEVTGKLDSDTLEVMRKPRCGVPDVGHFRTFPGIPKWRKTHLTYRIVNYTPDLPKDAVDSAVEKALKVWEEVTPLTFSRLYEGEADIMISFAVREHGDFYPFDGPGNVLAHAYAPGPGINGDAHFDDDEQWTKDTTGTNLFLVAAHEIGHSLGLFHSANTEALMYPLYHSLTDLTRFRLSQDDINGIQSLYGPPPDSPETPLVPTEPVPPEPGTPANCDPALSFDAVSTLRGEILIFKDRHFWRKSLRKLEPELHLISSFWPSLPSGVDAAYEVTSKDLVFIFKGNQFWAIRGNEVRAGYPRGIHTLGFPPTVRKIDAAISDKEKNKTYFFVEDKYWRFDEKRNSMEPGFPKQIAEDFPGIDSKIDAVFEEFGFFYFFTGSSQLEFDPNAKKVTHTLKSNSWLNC

Question: Which results are given for `Cc1cc(S(=O)(=O)N[C@@H](C(=O)NO)C2CCOCC2)ccc1F`?
Answer: IC50 [1]: 6500 nM; bioavailability [2]: 22%; IC50 (Lethal factor [3]): 210 nM; Cmax [4]: 12 nM; clearance [5]: 15 mL/min/kg; IC50 [6]: 2000 nM; Tmax [7]: 0.8 h; IC50 (Neprilysin): 9400 nM; half-life [8]: 0.4 h; Cmax [9]: 730 nM; Tmax [10]: 0.3 h; half-life [11]: 1.2 h; clearance [12]: 80 mL/min/kg; bioavailability [13]: 51%; bioavailability [14]: 57%; Vd [15]: 2.4 L/kg; IC50 (Lethal factor [16]): 54 nM; IC50 [17]: 2000 nM; IC50 (Stromelysin-1): 1400 nM; IC50 [18]: 4300 nM; Vd [19]: 3.3 L/kg; clearance [20]: 72 mL/min/kg; clearance [21]: 35 mL/min/kg; inhibition [22]: < 10%; Cmax [23]: 120 nM; half-life [24]: 2.4 h; bioavailability [25]: 71%; half-life [26]: 4.7 h; Tmax [27]: 1.3 h; Tmax [28]: 0.3 h; Cmax [29]: 120 nM; IC50 (Interstitial collagenase): 2200 nM; IC50 (Lethal factor [30]): 54 nM; Vd [31]: 1 L/kg; Vd [32]: 1.5 L/kg; bioavailability [33]: 20%; solubility [34]: 2500 µg/mL (≈ 7.22 mM); clearance [35]: 14 mL/min/kg; bioavailability [36]: 0.5%; half-life [37]: 2 h; Tmax [38]: 0.8 h; clearance [39]: 23 mL/min/kg; Cmax [40]: 240 nM; clearance [41]: 24 mL/min/kg
